Test results taken from PMC7689490, “Designed CXCR4 mimic acts as a soluble chemokine receptor that blocks atherogenic inflammation by agonist-specific targeting” (Nature Communications, 2020).
Values joined by “and” are separate entries in the source; they are usually repeats but may differ in a detail not shown here. Identical values can stand only once. “Also recorded” adds a separate entry of the source.

Key:
human CXCR4 = test: CXCL12-triggered CXCR4-specific signaling in yeast (lacZ read-out); format: cell-based
Procedure: Briefly, yeast transformants stably expressing human CXCR4 were grown overnight at 30 °C in yeast nitrogen base selective medium (Formedium, UK). Cells were diluted to an OD600 of 0.2 and grown to an OD600 of 0.3–0.6. […] OD600 was measured and activation of CXCR4 signaling quantified by β-galactosidase activity using a commercial BetaGlo Kit (Promega, Mannheim, Germany).

[1] = test system: primary mouse spleen B lymphocytes; test: MIF-triggered Transwell chemotaxis of primary splenic B cells;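 on all read-outs here: migration tracked over 4 h at 37 °C, read out as transmigrated cells counted by flow cytometry with absolute counting beads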; format: cell-based; details: for MIF-elicited chemotaxis: Suppl. Fig. 15b, individual replicates, n = 4
Procedure: Briefly, splenic B cells were isolated by negative depletion using a Pan B Cell Isolation Kit (Miltenyi Biotec, Bergisch Gladbach, Germany). […] Chemotaxis was followed for 4 h at 37 °C in a humidified atmosphere of 5% CO2. Migrated cells were counted by flow cytometry using CountBright™ Absolute Counting Beads (Molecular Probes-Invitrogen).

pAMPK/AMPK in HCM = test: MIF/CD74-triggered AMPK signaling in human cardiomyocytes (HCM); format: cell-based
Procedure: HCMs (2 × 10^5 per well) were plated in 12-well plates and maintained for 2 days with cultured medium containing 5% FCS. Before stimulation, medium was replaced by fresh myocyte basal medium containing 0.05% FCS and HCMs rested for 16 h. Surface CD74 expression on HCMs was verified by flow cytometry (FITC-conjugated anti-human CD74 (1:100 dilution), FITC-IgG2 (isotype control) (BD Pharmingen), 1 h/4 °C in the dark, BD FACSVerse™ flow cytometer, FlowJo software). […] After treatment, cells were lysed and subjected to SDS-PAGE (10%)/Western blotting using NuPAGE® lithium dodecyl sulfate (LDS)/dithiothreitol (DTT) lysis buffer-containing PhosSTOP^TM reagent (Roche Applied Science). […] Anti-rabbit horse-radish peroxidase (HRP)-conjugated antibody (1:10000, GE Healthcare, Freiburg, Germany) was used for development and signals quantitated by chemiluminescence using an Odyssey® Fc imager. Unprocessed scans of the Western blots are supplied in the Source Data file.

[2] = test system: primary human monocyte-derived macrophages; test: MIF-mediated DiI-LDL uptake / foam cell formation; format: cell-based; details: 80 nM MIF
Procedure: After washing with imaging solution (MEM without phenol red containing 30 mM HEPES, 0.5 g/L NaHCO3, pH 7.4, and 0.2% BSA), cells were exposed to 50 µg mL^−1 1,1′-dioctadecyl-3,3,3′3′-tetramethylindocarbocyanine-labeled oxidized LDL (DiI-oxLDL) or DiI-labeled native LDL (DiI-LDL) for 30 min at 4 °C, followed by incubation at 37 °C for 20 min. Cells were washed with ice-cold imaging solution (pH 3.5), fixed, and counter-stained with Hoechst 33258.

MonoMac-6 / HAoEC [3] = test: MIF-induced static adhesion of MonoMac-6 monocytes to HAoECs; format: cell-based, human
Procedure: HAoECs were seeded at a density of 30,000 cells/well in 6 well µ-Ibidi Perfusion slides VI 0.4 (Ibidi GmbH). […] After perfusion of the chambers with fresh medium, MonoMac6 cells (1 × 10^6 cells mL^−1) in PromoCell medium were added for 30 min. Non-adhering cells were flushed away by gentle perfusion using a 30 mL syringe. To quantify adherent monocytes, seven individual images (technical triplicates each) from each treatment were acquired using a Leica DMi8 inverted microscope with a ×10 objective and cells quantified using ImageJ.

MonoMac-6 / HAoEC [4] = test: MIF-induced MonoMac-6 adhesion to HAoECs under flow; format: cell-based, human
Procedure: HAoECs were seeded at a density of 60,000 cells per channel in collagen-coated Ibidi µ-Slides I 0.8 and incubated for 20–24 h until monolayers were confluent. […] Prior to the flow assay, MgSO4 and CaCl2 were added to MonoMac6 suspensions at a final concentration of 1 mM. Flow channels containing HAoEC monolayers were then perfused with MonoMac6 cells at a shear rate of 1.5 dyn cm^−2 for 10 min at 37 °C using the Ibidi Pump System/Perfusion Set. For quantification of adherent monocytes, images from four positions per channel were acquired using a Leica DMi8 inverted microscope (20 x objective) and quantified with ImageJ.

Apoe−/− mice on HFD = test: In vivo model of atherosclerosis (lesions, lesional macrophages, tolerability)
Procedure: Seven-eight-week-old female Apoe^−/− mice were randomly divided into two groups of 11–12 mice each and both groups put on a Western-type HFD (0.21% cholesterol) for 4.5 weeks. Mice develop early-to-intermediate atherosclerotic lesions in this model. […] At the end of the experiment, mice were sacrificed, blood collected by cardiac puncture and saved for blood cell and lipid measurements and mice transcardially perfused with saline. Hearts, proximal aortas and carotid arteries were prepared and fixed for plaque morphometry and lesion analysis.
Quantification of plaques and vessel morphometry (ORO and H&E staining). Cut heart tissues containing aortic root were embedded in Tissue Tek optimum cutting temperature (OCT) substance (Sakura Finetek, Osaka, Japan) and frozen at −80 °C. Eight-µm sections were prepared for ORO staining and plaque immune cell analysis. The accumulation of macrophages in aortic root lesions was determined by an anti-MAC-2 antibody (1:100 dilution) followed by Cy5-conjugated secondary antibody. Nuclei were visualized with DAPI. The aortic arch was cut, fixed in 4% paraformaldehyde (PFA) and embedded in paraffin. Four-µm sections containing the three branches (brachiocephalic, left common carotid, and left subclavian artery) were prepared and stained with hematoxylin/eosin (H&E) for vessel morphometry. Images were captured with a Leica DMi8 microscope and quantified using ImageJ.

[5] = test system: circulating inflammatory cytokines; test: Plasma cytokine array in treated Apoe−/− mice; format: in vivo, mouse; details: reductions for IL-1α, IL-16, TNF-α, CXCL13/BLC; 6 vs 6 mice
Procedure: Plasma samples were diluted (1:10) in array buffer; incubated with antibody detection cocktail for 1 h at RT, exposed to the blocked membranes (overnight, 4 °C), membranes washed and incubated with streptavidin-HRP conjugate working solution (30 min, RT). Membranes were developed with Chemi-Reagent Mix and analyzed by Odyssey® Fc imager. The average signal (mean signal intensity) of duplicate spots was quantified by ImageJ.

[6] = mouse, in vivo
[7] = MIF + msR4M-L1, individual replicates, n = 4

## CC[C@H](C)[C@H](NC(=O)[C@H](Cc1ccc(O)cc1)NC(=O)[C@H](CCCNC(=N)N)NC(=O)[C@H](CC(=O)O)NC(=O)CCCCCCCCCCCNC(=O)CCCCCNC(=O)[C@H](CCCCN)NC(=O)[C@H](CS)NC(=O)[C@H](CC(C)C)NC(=O)[C@H](Cc1ccccc1)NC(=O)[C@H](CC(N)=O)NC(=O)CNC(=O)[C@H](Cc1ccccc1)NC(=O)[C@H](Cc1ccc(O)cc1)NC(=O)[C@H](Cc1c[nH]c2ccccc12)NC(=O)[C@H](CC(N)=O)NC(=O)[C@H](C)NC(=O)[C@@H](NC(=O)[C@H](C)NC(=O)[C@@H](N)CC(=O)O)C(C)C)C(=O)N[C@@H](CS)C(=O)N[C@@H](CC(=O)O)C(=O)N[C@@H](CCCNC(=N)N)C(=O)N[C@@H](Cc1ccccc1)C(=O)N[C@@H](Cc1ccc(O)cc1)C(=O)N1CCC[C@H]1C(=O)N[C@@H](CC(N)=O)C(=O)N[C@@H](CC(=O)O)C(=O)N[C@@H](CC(C)C)C(=O)N[C@@H](Cc1c[nH]c2ccccc12)C(=O)N[C@H](C(N)=O)C(C)C [msR4M-L1, CXCR4-ECL1[97–110]-6-Ahx-12-Ado-ECL2[182–196]]
Human CXCR4
  effect on CXCL12/CXCR4-elicited signaling: remained unaffected
[1]; 16 nM MIF, peptide at 5-fold molar excess (80 nM)
  inhibition of MIF-mediated B-cell chemotaxis: fully blocked
[1]; log(msR4M-L1) (M) = -6.495
  MIF-elicited chemotaxis: 1.49 and 1 and 1.46 and 1.55
[1]; log(msR4M-L1) (M) = -6.796
  MIF-elicited chemotaxis: 1.24 and 1.03 and 1.49 and 1.3
[1]; log(msR4M-L1) (M) = -7.097
  MIF-elicited chemotaxis: 1.2 (3×) and 1.12
[1]; log(msR4M-L1) (M) = -7.495
  MIF-elicited chemotaxis: 1.18 and 1.24 and 2 and 1.77
[1]; log(msR4M-L1) (M) = -7.796
  MIF-elicited chemotaxis: 1.67 (2×) and 2.32 and 1.89
[1]; log(msR4M-L1) (M) = -10
  MIF-elicited chemotaxis: 2.52 and 2.18 and 3 and 2.83
pAMPK/AMPK in HCM
  effect on MIF-upregulated pAMPK levels: not attenuated
[2]
  inhibition of MIF-mediated DiI-LDL uptake: dose-dependently inhibited; also recorded: slightly better than that of ISO-1, but lower than that of NIH/IIID.9
MonoMac-6 / HAoEC [3]; 40 pM TNF-α pre-treatment, 320 nM msR4M-L1
  effect on MIF-induced static monocyte adhesion, TNF-α-prestimulated HAoECs: abrogated the effect of MIF
MonoMac-6 / HAoEC [3]; 16 nM MIF, 320 nM msR4M-L1, 16 h
  effect on MIF-induced static monocyte adhesion, resting HAoECs: blocked the pro-adhesion effect of MIF
MonoMac-6 / HAoEC [3]; [7]
  Fig. 5a, MIF-induced monocyte adhesion: 56.3 and 56.9 and 61.4 and 42.3
MonoMac-6 / HAoEC [4]; 1.5 dyn/cm^2, 16 nM MIF, 320 nM msR4M-L1
  effect on MIF-induced monocyte adhesion under flow: inhibited monocyte adhesion
MonoMac-6 / HAoEC [4]; [7]
  Fig. 5c, MIF-induced monocyte adhesion: 206 and 207 and 188 and 291
MonoMac-6 / HAoEC [4]; TNF + MIF + msR4M-L1, individual replicates, n = 3
  Fig. 5b, MIF-induced monocyte adhesion: 105.71 and 99.43 and 83.71
Apoe−/− mice on HFD; 50 µg i.p. for 4.5 weeks
  toxicity or side effects: No toxicity or side effects were noted
Apoe−/− mice on HFD; Apoe−/− mice, HFD 4.5 weeks, 50 µg (2.5 mg kg^−1) i.p. three times per week, HE, 7 vs 7 mice
  atherosclerotic lesion size in aortic arch: significantly decreased
Apoe−/− mice on HFD; Fig. 6g, msR4M-L1-treated animals, per animal, n = 11
  Lesion area (x10to3 µm2): 184.774 x10to3 µm2 and 104.198 x10to3 µm2 and 151.257 x10to3 µm2 and 126.04 x10to3 µm2 and 45.213 x10to3 µm2 and 130.67 x10to3 µm2 and 89.727 x10to3 µm2 and 63.265 x10to3 µm2 and 177.705 x10to3 µm2 and 117.601 x10to3 µm2 and 70.989 x10to3 µm2
Apoe−/− mice on HFD; as E123, 11 vs 12 mice
  number of lesional macrophages, MAC-2 staining: significantly decreased
Apoe−/− mice on HFD; as E123, ORO, 12 vs 12 mice
  atherosclerotic lesion size in aortic root: significantly decreased
[5]
  circulating inflammatory cytokine levels: marked reduction
[6]
  Body weight: 22.3 ± 0.2 g
